The values below are quoted from earlier work in PMC7576618 (British Journal of Clinical Pharmacology, 2020).

Like-named read-outs stand apart in the source and are kept apart here.

For data set [1] the following is noted: humans; cited from earlier work.
The target in data set [2] is mGlu2 receptor. The following applies: read-out: EC50 (assay system used by Eli Lilly); cited from earlier work.
Data set [3] has as its target mGlu2 receptor. Conditions: read-out: in vitro EC50 for mGlu2 receptor; cited from earlier work.
The conditions of data set [4]: active compound LY2812223; cited from earlier work.

With `CSCC[C@H](N)C(=O)N[C@@]1(C(=O)O)CS(=O)(=O)[C@H]2[C@H](C(=O)O)[C@H]21` [LY2140023], the “plasma exposure of the prodrug relative to that of LY404039” value in data set [1] is “approximately 30%”.

As a reminder, the EC50 is the concentration giving half of the maximal effect. Take `N[C@@]1(C(=O)O)CC[C@H]2[C@H](C(=O)O)[C@H]21` [LY354740, (+)‐2‐aminobicyclo[3.1.0]hexane‐2,6‐dicarboxylic acid]: the EC50 was 5.1 nM on mGlu2 receptor [2] and 18.3 nM on mGlu2 receptor [3].

Regarding `C[C@H](N)C(=O)N[C@@]1(C(=O)O)C[C@@H](Sc2nnc[nH]2)[C@H]2[C@H](C(=O)O)[C@H]21` [LY2979165], in data set [4], the “plasma levels of prodrug relative to its active compound” value is less than 1%.
